Source: PMC12812009, “Optimization of 4‐Amino‐2‐Pyridone Inhibitors of Proprotein Convertase Subtilisin/Kexin Type 9: Integrating Structure–Activity and Structure–Metabolism Relationships” (Chemmedchem, 2025)

What was measured:
[1] = In vitro metabolic stability with mouse liver microsomes; format: in vitro ADME; settings: for metabolic stability (in words): MLM + NADPH-generating system; for metabolic stability/PCSK9 IC50 ratio (in words): with respect to 5c
Protocol: All newly synthesized LSF derivatives of 5c were biologically evaluated to determine whether the introduced modifications influenced both metabolic stability and anti‐PCSK9 activity. Microsomal stability assays were conducted to assess the impact of LSF modifications on improving the stability of 5c. In these assays, LSF derivatives were incubated with mouse liver microsomes (MLM) and an NADPH‐generating system for 60 min, followed by HPLC analysis. Control samples included compounds and liver microsomes without the NADPH system, allowing for the assessment of nonspecific binding to microsomes. […] Acylated derivatives 12, 13, and 14 achieved stability levels exceeding 95%, as did the bicyclic derivative 7, which exemplifies a dual‐site functionalization.
MLM (pooled male) were obtained from Xenotech, LLC (Cambridge, Kansas City, USA). Glucose‐6‐phosphate (G6P), oxidized nicotinamide‐adenine‐dinucleotide phosphate (NADP^+), magnesium chloride (MgCl2), and glucose‐6‐phosphate‐dehydrogenase (G6PDH) were supplied by Sigma‐Aldrich (Milan, Italy). Metabolic stability assays were modified from Ferlenghi et al.^[ [33] ^] Briefly, samples were prepared in 100 mM phosphate buffered saline (PBS), pH 7.4, containing 1 mg ml^–1 MLM and a NADPH‐generating system (5 mM MgCl2, 10 mM glucose‐6‐phosphate, 2 mM NADP^+, 1.5 U ml^–1 of glucose‐6‐phosphate dehydrogenase). After incubation (37 °C, 5 min stirring), compounds stock solutions in DMSO were added to a final concentration of 10 µM. The final DMSO percentage in samples was kept at 0.5%. After 60 min, single aliquots of reaction mixture were withdrawn, added of two volumes of acetonitrile, centrifuged (10,000 g, 10 min) and the supernatant was analyzed by HPLC. The unspecific binding to MLM was evaluated by means of control samples in which the compounds were incubated in the absence of a NADPH generating system. The apparatus used for HPLC analysis was a Shimadzu instrument, with a reverse‐phase Nova‐Pak column (Waters) (C18 4 μm 3.9 × 150 mm, Waters). The mobile phase, pumped at a flow rate of 1.2 ml min^–1, consisted of water and acetonitrile in either a 50:50 (v/v) ratio (compounds 5c, 6a, 6b, 6c, 7, 8, 12, 13, 14, 17b) or a 40:60 (v/v) ratio (compounds 11 and 15) or a 30:70 (v/v) ratio (for compounds 17a, 18a, 18b). For compounds 9 and 10, a phosphate buffer (5.98 g L^–1 Na2HPO4, 0.19 g L^–1 KH2PO4, adjusted to pH 7.4 with 85% H3PO4 and supplemented with 1.4 mL L^–1 triethylamine; final pH: 8) and acetonitrile (50:50, v/v) were pumped at a flow rate of 2 mL min^–1. In all cases, column temperature was 35 °C, injection volume was 50 µl, and absorbance was monitored at 254 nm. Serial dilutions for the calibration curves were prepared in the interval 0.5–20 µM in either PBS:CH3CN or H2O:CH3CN mixture (50:50, v/v) for compounds 5c, 6a, 6b, 8, 9, 10, 11, 12, 13, 14, 15, 17a, 17b, 18a, 18b, and in acetonitrile for compounds 6c and 7.

[2] = tested on: circulating PCSK9; design: method as in PMID 38160616; settings: mice; cited from earlier work
[3] = design: method as in PMID 38160616; settings: seven days of daily subcutaneous administration; cited from earlier work
[4] = tested on: PCSK9 protein; test: Western blot of PCSK9 protein levels in HepG2 cells; format: cell-based, human; settings: 10 µM, HepG2, 24 h
Protocol: (§1) The third step of our functional assay was focused on the most promising compounds from the previous step (6b and 7), looking at the PCSK9 and LDLR protein expressions in HepG2 cells treated with increasing concentrations of the compounds (2.5–5–10 µM). This analysis, conducted in comparison with 5c using a Western blot assay, aimed to provide a more comprehensive understanding of the intracellular activity and efficacy of these novel PCSK9i , further supporting their potential for preclinical development. […] Importantly, LDLR protein levels were increased by compound 7 only at 10 µM (+39%, p < 0.01, Figure 6B) as compared to basal condition.
(§2) HepG2 cells were seeded at the cellular density of 500,000 cells/well in a 6‐well tray, in 2 mL of complete medium, and incubated as described above. The day after, treatments were prepared in starving medium. The cells were washed once with PBS and then incubated with media containing treatments. […] Total protein content was measured through bicinchoninic acid (BCA) assay (Euroclone, EMP014250), according to manufacturer's instructions. […] Immunobands were detected with Imager Alliance Q9 ATOM Supreme by UVITEC (Cambridge, UK) after 5 min of membranes incubation in the dark with ECL Star solution (EuroClone, EMP001005). Every experimental condition was run in triplicate and the average cell viability and standard deviation was calculated.

[5] = tested on: LDLR protein; test: Western blot of LDLR protein levels in HepG2 cells; format: cell-based, human; settings: HepG2, 24 h
Protocol: as §1, §2

| metabolic stability, percentage of intact compound recovered relative to control ([1]; MLM 1 mg/ml + NADPH-generating system, 60 min, 10 µM, HPLC) | SMILES | metabolic stability (in words) ([1]; 60 min) | circulating PCSK9 levels in vivo (in words) [2] | tolerability in mice (in words) [3] | metabolic stability/PCSK9 IC50 ratio (in words) [1] | maximal reduction of PCSK9 protein levels vs. basal [4] [%] | LDLR expression (in words) ([5]; 2.5–5–10 µM) | PCSK9 protein level change vs. basal [4] [%] | LDLR protein level change vs. basal ([5]; 10 µM) |
| --- | --- | --- | --- | --- | --- | --- | --- | --- | --- |
| – | Cc1cc(NCc2ccc(C(F)(F)F)cc2)cc(=O)n1Cc1ccc(C(F)(F)F)cc1 [Compound 5c] | suboptimal metabolic stability | did not demonstrate a significant reduction in circulating PCSK9 levels | well tolerated | – | – | – | – | – |
| – | Cc1cc(NCc2ccc(C(F)(F)F)cc2)c(Br)c(=O)n1Cc1ccc(C(F)(F)F)cc1 [Compound 6b, 3‐Bromo‐6‐Methyl‐1‐(4‐(Trifluoromethyl)Benzyl)‐4‐((4‐(Trifluoromethyl)Benzyl)Amino)pyridin‐2(1H)‐One] | greater stability compared to chlorinated 6a | – | – | higher metabolic stability/PCSK9 IC50 ratio | 93 | did not modulate its expression at all concentrations tested | – | – |
| exceeding 95% | Cc1cc2c(sc(=N)n2Cc2ccc(C(F)(F)F)cc2)c(=O)n1Cc1ccc(C(F)(F)F)cc1 [Compound 7, 2‐Imino‐6‐Methyl‐1,5‐Bis(4‐(Trifluoromethyl)benzyl)‐1,2‐Dihydrothiazolo[5,4‐c]pyridin‐4(5H)‐One] | – | – | – | higher metabolic stability/PCSK9 IC50 ratio | – | – | −42 | +39% |
